Results reported in US9765035B2 (priority 2013, dated 2017).

Target: T1, Human CARM1 (PRMT4) (Homo sapiens, UniProt Q86X55)
T1 construct: Flag-CARM1-His; made in house; host or cells: HEK 293F cells (BacMam baculovirus)
T1 sequence (Q86X55 1-585 isoform Q86X55-1): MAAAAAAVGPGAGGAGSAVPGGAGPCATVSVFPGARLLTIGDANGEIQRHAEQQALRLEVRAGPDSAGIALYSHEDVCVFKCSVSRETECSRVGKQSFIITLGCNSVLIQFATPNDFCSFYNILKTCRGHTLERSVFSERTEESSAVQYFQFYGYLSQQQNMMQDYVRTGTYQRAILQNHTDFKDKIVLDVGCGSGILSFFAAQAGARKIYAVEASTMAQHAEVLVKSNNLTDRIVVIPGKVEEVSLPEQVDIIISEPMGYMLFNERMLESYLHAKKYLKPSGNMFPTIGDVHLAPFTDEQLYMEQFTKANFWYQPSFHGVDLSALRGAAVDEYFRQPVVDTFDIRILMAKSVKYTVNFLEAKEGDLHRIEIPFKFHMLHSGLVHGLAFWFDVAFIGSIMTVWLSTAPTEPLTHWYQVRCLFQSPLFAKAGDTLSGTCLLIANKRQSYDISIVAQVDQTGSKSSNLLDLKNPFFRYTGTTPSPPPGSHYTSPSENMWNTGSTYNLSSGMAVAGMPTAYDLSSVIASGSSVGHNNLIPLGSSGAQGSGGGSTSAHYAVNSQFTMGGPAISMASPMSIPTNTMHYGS
Test: CARM1 Biochemical Assay
Source text: General Materials. S-adenosylmethionine (SAM), S-adenosylhomocysteine (SAH), bicine, Tween20, dimethylsulfoxide (DMSO), bovine skin gelatin (BSG), sodium butyrate and Tris(2-carboxyethyl)phosphine hydrochloride solution (TCEP) were purchased from Sigma-Aldrich at the highest level of purity possible. ^3H-SAM was purchase from American Radiolabeled Chemicals with a specific activity of 80 Ci/mmol. 384-well streptavidin Flashplates were purchased from PerkinElmer.
Substrates. Peptide representative of human histone H3 residues 16-30 was synthesized with an N-terminal linker-affinity tag motif and a C-terminal amide cap by 21st Century Biochemicals. The peptide was purified by high-performance liquid chromatography (HPLC) to greater than 95% purity and confirmed by liquid chromatography mass spectrometry (LC-MS). The sequence was Biot-Ahx-[…]-amide and contained a monomethylated arginine at position 26 (SEQ ID NO.: 14).
Molecular Biology: Human CARM1 (PRMT4) (NM_199141.1) transcript clone was amplified from an HEK 293 cDNA library, incorporating a flanking 5′ sequence encoding a FLAG tag ([…]) (SEQ ID NO.:6) fused directly to Ala 2 of CARM1 and 3′ sequence encoding a hexa His sequence ([…]) (SEQ ID NO.: 15) fused directly to Ser 608. The gene sequence encoding isoform1 containing a deletion of amino acids 539-561 was amplified subsequently and subcloned into pFastBacMam (Viva Biotech).
Protein Expression. Recombinant baculovirus were generated according to Bac-to-Bac kit instructions (Life Technologies). […] Infections were carried out at 37° C. for 48 hours, harvested by centrifugation, and stored at −80° C. for purification.
Protein Purification. […] Column was washed with 500 mM NaCl in buffer A and Flag-CARM1-His was eluted with 200 ug/ml FLAG peptide in buffer A. Pooled fractions were dialyzed in 20 mM Tris, 150 mM NaCl, 5% glycerol and 1 mM DTT, pH 7.8. The purity of recovered protein was 94.
General Procedure for CARM1 Enzyme Assays on Peptide Substrates. The assays were all performed in a buffer consisting of 20 mM Bicine (pH=7.6), 1 mM TCEP, 0.005% BSG, and 0.002% Tween 20, prepared on the day of use. Compounds in 100% DMSO (1 ul) were spotted into a polypropylene 384-well V-bottom plates (Greiner) using a Platemate Plus outfitted with a 384-channel head (Thermo Scientific). DMSO (1 ul) was added to Columns 11, 12, 23, 24, rows A-H for the maximum signal control and 1 ul of SAH, a known product and inhibitor of CARM1, was added to columns 11, 12, 23, 24, rows I-P for the minimum signal control. A cocktail (40 ul) containing the CARM1 enzyme was added by Multidrop Combi (Thermo-Fisher). The compounds were allowed to incubate with CARM1 for 30 min at room temperature, then a cocktail (10 ul) containing ^3H-SAM and peptide was added to initiate the reaction (final volume=51 ul). The final concentrations of the components were as follows: CARM1 was 0.25 nM, ^3H-SAM was 30 nM, peptide was 250 nM, SAH in the minimum signal control wells was 1 mM, and the DMSO concentration was 2%. The assays were stopped by the addition of non-radiolabeled SAM (10 ul) to a final concentration of 300 uM, which dilutes the ^3H-SAM to a level where its incorporation into the peptide substrate is no longer detectable. 50 ul of the reaction in the 384-well polypropylene plate was then transferred to a 384-well Flashplate and the biotinylated peptides were allowed to bind to the streptavidin surface for at least 1 hour before being washed once with 0.1% Tween20 in a Biotek EL×405 plate washer. The plates were then read in a PerkinElmer TopCount plate reader to measure the quantity of ^3H-labeled peptide bound to the Flashplate surface, measured as disintegrations per minute (dpm) or alternatively, referred to as counts per minute (cpm).
Where dpm=disintegrations per minute, cmpd=signal in assay well, and min and max are the respective minimum and maximum signal controls. […]

[1] = PRMT4 IC50, biochemical evaluation, CARM1 (PRMT4), peptide substrate
[2] = PRMT4 biochemical evaluation (numerical), single experiment or average of multiple experiments

CNCCN(C)Cc1n[nH]c2ccc(OC3CCCCC3)cc12 [Compound 18]
IC50 [1]: 101 to 1000 nM

CNCCN(C)Cc1n[nH]c2ccc(OCc3ccn(C)n3)cc12 [Compound 20]
IC50 [2]: 153 nM

CNCCN(C)Cc1n[nH]c2ccc(Oc3cccc(OC)c3)cc12 [Compound 22]
IC50 [1]: 101 to 1000 nM

CNCCN(C)Cc1n[nH]c2ccc(OCc3ccc(C(C)=O)cc3)cc12 [Compound 23]
IC50 [1]: 101 to 1000 nM

CNCCN(C)Cc1n[nH]c2ccc(Oc3ccccc3OC)cc12 [Compound 24]
IC50 [1]: < 100 nM | IC50 [2]: 115 nM

CNCCN(C)Cc1n[nH]c2ccc(OC3CCOC3)cc12 (centres unmarked) [Compound 25, N^1,N^2-dimethyl-N^1-((5-((tetrahydrofuran-3-yl)oxy)-1H-indazol-3-yl)methyl)ethane-1,2-diamine]
IC50 [1]: 101 to 1000 nM | IC50 [2]: 932 nM

CNCCN(C)Cc1n[nH]c2ccc(Oc3cccc(C)c3)cc12 [Compound 26]
IC50 [1]: 101 to 1000 nM | IC50 [2]: 35.1 nM

CNCCN(C)Cc1n[nH]c2ccc(Oc3cccc(Cl)c3)cc12 [Compound 27, N^1-((5-(3-chlorophenoxy)-1H-indazol-3-yl)methyl)-N^1,N^2-dimethylethane-1,2-diamine]
IC50 [1]: 101 to 1000 nM | IC50 [2]: 390 nM

CNCCN(C)Cc1n[nH]c2ccc(Oc3cccc(C#N)c3)cc12 [Compound 28]
IC50 [1]: 1010 to 3000 nM | IC50 [2]: 260 nM

CNCCN(C)Cc1n[nH]c2ccc(OC3CCOCC3)cc12 [Compound 29, N^1,N^2-dimethyl-N^1-((5-((tetrahydro-2H-pyran-4-yl)oxy)-1H-indazol-3-yl)methyl)ethane-1,2-diamine]
IC50 [1]: 101 to 1000 nM | IC50 [2]: 446 nM

CNCCN(C)Cc1n[nH]c2ccc(Oc3ccccc3Cl)cc12 [Compound 30]
IC50 [1]: 101 to 1000 nM | IC50 [2]: 2340 nM

CNCCN(C)Cc1n[nH]c2cccc(OCCC(C)C)c12 [Compound 31]
IC50 [2]: 423 nM

CNCCN(C)Cc1nn(C)c2ccc(OCc3ccc(C#N)cc3)cc12 [Compound 32]
IC50 [1]: 101 to 1000 nM | IC50 [2]: 188 nM

CNCCN(C)Cc1c2cc(OCc3ccc(C#N)cc3)ccc2nn1C(C)C [Compound 34]
IC50 [1]: 3010 to 10000 nM | IC50 [2]: 310 nM

CNCCN(C)Cc1n[nH]c2ccc(OC)cc12 [Compound 35]
IC50 [1]: 3010 to 10000 nM

CNCCN(C)Cc1n[nH]c2ccc(O)cc12 [Compound 36, 3-((methyl(2-(methylamino)ethyl)amino)methyl)-1H-indazol-5-ol]
IC50 [1]: 3010 to 10000 nM | IC50 [2]: 6130 nM

CNCCN(C)Cc1n[nH]c2ccc(Oc3ccc(C#N)cc3)cc12 [Compound 37]
IC50 [1]: 1010 to 3000 nM | IC50 [2]: > 10000 nM

CNCCN(C)Cc1nn(C2CCN(C(C)=O)CC2)c2ccc(OCc3ccc(C#N)cc3)cc12 [Compound 38]
IC50 [1]: 1010 to 3000 nM | IC50 [2]: > 10000 nM

CNCCN(C)Cc1n[nH]c2ccc(Oc3ccc(C(F)(F)F)cc3)cc12 [Compound 39]
IC50 [1]: 101 to 1000 nM | IC50 [2]: 2880 nM

CNCCN(C)Cc1n[nH]c2cccc(OCCC(O)CO)c12 (centres unmarked) [Compound 40]
IC50 [1]: 3010 to 10000 nM | IC50 [2]: 2110 nM

CNCCN(C)Cc1n[nH]c2cccc(OCCCC(O)CO)c12 (centres unmarked) [Compound 41, 5-((3-((methyl(2-(methylamino)ethyl)amino)methyl)-1H-indazol-4-yl)oxy)pentane-1,2-diol]
IC50 [1]: 1010 to 3000 nM | IC50 [2]: 240 nM

CNCCN(C)Cc1n[nH]c2ccc(C(C)C)cc12 [Compound 42, N^1-((5-isopropyl-1H-indazol-3-yl)methyl)-N^1,N^2-dimethylethane-1,2-diamine]
IC50 [1]: 1010 to 3000 nM | IC50 [2]: 4050 nM

CNCCN(C)Cc1n[nH]c2ccc(N3CCC4(CCCCC4)CC3)cc12 [Compound 43, N^1-((5-(3-azaspiro[5.5]undecan-3-yl)-1H-indazol-3-yl)methyl)-N^1,N^2-dimethylethane-1,2-diamine]
IC50 [1]: 101 to 1000 nM | IC50 [2]: 1780 nM

CNCCN(C)Cc1n[nH]c2ccc(C3CCOCC3)cc12 [Compound 44, N^1,N^2-dimethyl-N^1-((5-(tetrahydro-2H-pyran-4-yl)-1H-indazol-3-yl)methyl)ethane-1,2-diamine]
IC50 [1]: 101 to 1000 nM | IC50 [2]: 1010 nM

CNCCN(C)Cc1n[nH]c2ccc(C3=CCOCC3)cc12 [Compound 45]
IC50 [1]: 101 to 1000 nM | IC50 [2]: 160 nM

CNCCN(C)Cc1n[nH]c2ccc(N3CCCCC3)cc12 [Compound 46, N^1,N^2-dimethyl-N^1-((5-(piperidin-1-yl)-1H-indazol-3-yl)methyl)ethane-1,2-diamine]
IC50 [1]: 101 to 1000 nM | IC50 [2]: 259 nM

CNCCN(C)Cc1n[nH]c2ccc(C3CCCCC3)cc12 [Compound 47, N^1-((5-cyclohexyl-1H-indazol-3-yl)methyl)-N^1,N^2-dimethylethane-1,2-diamine]
IC50 [1]: 101 to 1000 nM | IC50 [2]: 370 nM

CNCCN(C)Cc1n[nH]c2ccc(C3=CCCCC3)cc12 [Compound 48]
IC50 [1]: 101 to 1000 nM | IC50 [2]: 440 nM

CNCCN(C)Cc1n[nH]c2ccc(Oc3ccccc3C(F)(F)F)cc12 [Compound 49]
IC50 [1]: 3010 to 10000 nM | IC50 [2]: 606 nM

CNCCN(C)Cc1n[nH]c2ccc(OCC3CCOCC3)cc12 [Compound 50]
IC50 [1]: 3010 to 10000 nM | IC50 [2]: 245 nM

CNCCN(C)Cc1n[nH]c2ccc(OCC3CCN(C(C)=O)CC3)cc12 [Compound 51]
IC50 [1]: 3010 to 10000 nM | IC50 [2]: > 10000 nM

CNCCN(C)Cc1n[nH]c2ccc(OCC3CCCC3)cc12 [Compound 52]
IC50 [1]: 3010 to 10000 nM | IC50 [2]: > 10000 nM

CNCCN(C)Cc1c2cc(OCc3ccc(C#N)cc3)ccc2nn1C1CCOCC1 [Compound 53]
IC50 [1]: 3010 to 10000 nM | IC50 [2]: > 10000 nM

CNCCN(C)Cc1n[nH]c2ccc(OCC3CCCCC3)cc12 [Compound 54]
IC50 [1]: 3010 to 10000 nM | IC50 [2]: > 10000 nM

CNCCN(C)Cc1n[nH]c2ccc(Oc3ccc(C)cc3)cc12 [Compound 55]
IC50 [1]: 101 to 1000 nM | IC50 [2]: > 10000 nM

CNCCN(C)Cc1n[nH]c2ccc(Oc3ccccc3OC(C)C)cc12 [Compound 56]
IC50 [1]: 101 to 1000 nM | IC50 [2]: > 10000 nM

CNCCN(C)Cc1n[nH]c2ccc(Oc3ccc(Cl)cc3)cc12 [Compound 57]
IC50 [1]: 101 to 1000 nM | IC50 [2]: 333 nM

CNCCN(C)Cc1n[nH]c2ccc(OC3CCN(C(C)=O)CC3)cc12 [Compound 58, 1-(4-((3-((methyl(2-(methylamino)ethyl)amino)methyl)-1H-indazol-5-yl)oxy)piperidin-1-yl)ethan-1-one]
IC50 [1]: 1010 to 3000 nM | IC50 [2]: 248 nM

CNCCN(C)Cc1n[nH]c2ccc(Oc3ccc(OC)cc3)cc12 [Compound 59]
IC50 [1]: < 100 nM | IC50 [2]: 313 nM

CNCCN(C)Cc1n[nH]c2ccc(Oc3ccccc3C)cc12 [Compound 60]
IC50 [1]: 101 to 1000 nM | IC50 [2]: 1770 nM
